Values quoted from earlier work as cited in patent US20110236881A1, “MODULATION OF INFLUENZA VIRUS” (priority 2008, published 2011).

Target: full-length M2 (Influenza A virus, UniProt P0DOF5)
Conditions: the protein binds a single drug molecule per tetramer

Chain of full-length M2 (P0DOF5 whole entry): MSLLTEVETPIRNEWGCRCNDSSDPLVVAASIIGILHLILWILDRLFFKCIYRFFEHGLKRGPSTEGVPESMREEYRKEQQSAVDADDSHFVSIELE

For `NC12CC3CC(CC(C3)C1)C2` [amantadine], the “cooperativity factor of inhibition of full-length M2” value is given as 1.0.
